Measured values published in patent publication US20260167608A1, “CRYSTALLINE FORMS OF 4-(7-HYDROXY-2-ISOPROPYL-4-OXO-4H-QUINAZOLIN-3-YL)-BENZONITRILE AND FORMULATIONS THEREOF” (Bausch + Lomb Ireland Limited, priority 2019, published 2026).
Values after ≈ are worked out from the molar mass of the structure shown.

Assays:
[1] = Conversion of crystal form C in 1:1 mixtures with other crystal forms in solvent; assay type: physicochemical
[2] = Equilibration with solvent at 25° C., solid investigated by XRPD; assay type: physicochemical; design: key to XRPD change after equilibration: “−”: no change detected; “+”: change detected; “//”: not carried out because substance too soluble in the solvent
Experimental: Equilibration with Solvent at 25° C.
For equilibration at 25° C., about 50 mg of compound I was equilibrated with 1 ml solvent for 24 h in a water bath at 25° C.±0.1. The solutions were filtered and dried for 10 minutes in the air. The solid part was investigated by XRPD (X-ray powder diffraction). If differences were observed additional investigations were performed as appropriate (e.g. DSC, TG, IR, SEM).
The X-ray powder diffraction (XRPD) patterns described herein were recorded on a Bruker D8 Advance diffractometer using CuKα radiation. The XRPD pattern was recorded between 2° and 40° (2-theta).

[3] = Hygroscopicity (water uptake) of crystal form E; assay type: physicochemical
Experimental: The maximum water uptake is less than 0.1% at 25° C. up to 92% relative humidity.

[4] = Solubility of crystal form E at 25° C., analysis by HPLC; assay type: physicochemical; conditions: thermodynamic from solid
Experimental: Solubility of crystal form E was measured at 25° C.

[5] = Intrinsic dissolution rate at 37° C.; assay type: physicochemical
[6] = Exploratory formulation stability at room temperature and 40° C. (UPLC assay); assay type: physicochemical; conditions: part of compound I in solution in the supernatant; after 12 weeks at 40° C.
Experimental: Based on the limited solubility of compound I in various solvents and in water, a suspension formulation was explored for development. The following five formulations were prepared and tested for stability. Formulations were stored in crimp-sealed glass vials at room temperature and at 40° C. At 6, 8 and 12 weeks, samples were evaluated for compound I stability.
The formulations prepared in Table 13 were assayed using an exploratory UPLC method developed for the assay of compound I as shown in Table 14.
Results from the testing for compound I stability at room temperature and 40° C. are shown in FIG. 14A and FIG. 14B, respectively. […] In contrast, the part of compound I in solution in the supernatant degrades to about 20% of initial amount after 12 weeks at 40° C.

[7] = Pharmacokinetic study of exploratory formulations, single bilateral topical ocular dosing; assay type: in vivo, rabbit; conditions: male NZW rabbits
Experimental: A pharmacokinetics study was conducted to determine the ocular uptake of compound I following single bilateral topical ocular dosing of male NZW rabbits with the same four exploratory formulations provided in Table 13: FID 12152, FID 121511, FID 121512, FID 121513.

[8] = equilibration at 25° C., solvent t-butylmethylether

SMILES: CC(C)c1nc2cc(O)ccc2c(=O)n1-c1ccc(C#N)cc1 [Crystal form C, 4-(7-Hydroxy-2-isopropyl-4-oxo-4H-quinazolin-3-yl)-benzonitrile]
- conversion of crystal form ([1]; 1:1 mixture with crystal form A, in methanol): converted in methanol to Solvate SB (crystal form G)
- conversion of crystal form ([1]; 1:1 mixture with crystal form B, in isopropanol): converted in isopropanol to crystal form B

SMILES: CC(C)c1nc2cc(O)ccc2c(=O)n1-c1ccc(C#N)cc1 [Crystal form E, 4-(7-Hydroxy-2-isopropyl-4-oxo-4H-quinazolin-3-yl)-benzonitrile]
- Comments ([2]; equilibration at 25° C., solvent Acetone): too soluble
- XRPD change after equilibration ([2]; equilibration at 25° C., solvent Cyclohexane): −
- XRPD change after equilibration ([2]; equilibration at 25° C., solvent Ethanol abs.): −
- XRPD change after equilibration ([2]; equilibration at 25° C., solvent Ethyl acetate): −
- XRPD change after equilibration ([2]; equilibration at 25° C., solvent Water): −
- Comments [2, 8]: amorphous
- XRPD change after equilibration [2, 8]: +
- Comments ([2]; form E mixed with form B, equilibration at 25 degree C., solvent Ethanol abs.): converts into crystal form B
- hygroscopicity [3]: non-hygroscopic
- maximum water uptake ([3]; at 25° C. up to 92% relative humidity): less than 0.1%
- solubility ([4]; acetate buffer pH 4.5, 25 °C, aqueous buffer, Buffer pH 4.5 (acetate)): 10 µg/mL (≈ 32.8 µM)
- solubility ([4]; buffer pH 1 (0.1 N HCl), 25 °C, pH 1, simulated gastric fluid): 345 µg/mL (≈ 1130 µM)
- solubility ([4]; phosphate buffer pH 6.88, 25 °C, aqueous buffer, Buffer pH 6.88 (phosphate)): 11 µg/mL (≈ 36 µM)
- Intrinsic dissolution rate (IDR) at 37° C. ([5]; HCl 0.1 N): 0.0194 mg min^−1 cm^−2
- Intrinsic dissolution rate (IDR) at 37° C. ([5]; pH 3): 0.0025 mg min^−1 cm^−2

SMILES: CC(C)c1nc2cc(O)ccc2c(=O)n1-c1ccc(C#N)cc1 [compound I, 4-(7-hydroxy-2-isopropyl-4-oxo-4H-quinazolin-3-yl)-benzonitrile]
- compound I remaining, of initial amount [6]: about 20%
- exposure in the cornea, times the levels in plasma [7]: approximately 500 times
- exposure in the cornea, times the levels in the aqueous humor and iris-ciliary body [7]: approximately 10 times
